# Results from patent US20240093236A1, “RAPID HIGH THROUGHPUT SCREENING SYSTEM TO ASSESS POTENTIAL TREATMENTS FOR SPORADIC ALZHEIMER’S DISEASE” (Trustees of Tufts College, priority 2021, published 2024).
# Entries after “also recorded” stand apart in the source; their conditions may differ. Structures can show the parent of a compound that is named as a salt.
# Assays:
# [1] = test system: HSV-1-infected hiNSCs; experiment: Gliosis and neuroinflammation (GFAP, TNFα) in HSV-1-infected hiNSCs, immunostaining and qPCR; assay type: cell-based, human
# Experimental: (§1) hiNSC colonies were trypsinized off of MEF feeder layers using TrypLE (Invitrogen) and then dissociated by manual pipetting. Cell suspensions were passaged through a 40- to […] cell strainer to remove larger aggregates. Dissociated hiNSCs were cultured on gelatin-coated plates in neurobasal media supplemented with 2% B27 (Invitrogen), 1% glutamax, and 1% antibiotic-antimycotic. For HSV infection, we used purified HSV-1 to directly infect hiNSCs at a range of MOIs (0.00001 to 1), which was calculated based on the starting virus concentration (2×10^7 PFU/ml) and initial seeding density.
# (§2) Once added to media, inoculum was allowed to remain in cell cultures for the duration of the experiment to mimic low-level brain infection. For mock infections, an equal volume of control culture medium from uninfected Vero cells was used. All virus work was approved by the Tufts Institutional Biosafety Committee. Valacyclovir (VCV) HCl was reconstituted in dH2O and used at a concentration of 200 μM for all subsequent experiments. […]
# (§3) Total RNA was isolated using the RNeasy Mini Kit (Qiagen). […] Quantitative reverse transcription PCR (qRT-PCR) was performed using SYBR Green and the CFX96 Real-Time PCR Detection System (Bio-Rad) and normalized against the housekeeping gene glyceraldehyde phosphate dehydrogenase. […]
# [2] = test system: HSV-1-infected hiNSCs; experiment: Latency model of HSV-1 infection in hiNSCs (acute infection followed by antiviral treatment), qPCR; assay type: cell-based, human; details: acute HSV-1 infection 24 hrs followed by antiviral treatment (latency induction)
# Excerpt: A) Schematic of timeline of HSV-1 and antiviral treatments to induce latency. Acute infection of hiNSCs with HSV-1 for 24 hrs. followed by antiviral treatment results in similar expression patterns of typical AD markers as described previously (B-D). E) This treatment also results in quantifiable expression of HSV-1 latency associated transcript (LAT).
# HSV-1 typically lies latent in the peripheral nervous system indefinitely, and it is only upon reactivation that this virus can exert its detrimental effects such as cold sores and potentially neurodegeneration. Understanding potential triggers of this viral reactivation are crucial in elucidating downstream pathways involved in disease pathogenesis. There are currently few if any suitable in vitro models of HSV-1 latency. Here, we describe a method with which to induce latency of HSV-1 in vitro. […] Induction of latency with valacyclovir was also associated with an increase in glial fibrillary acidic protein (GFAP) expression (FIG. 21D), which is indicative of gliosis.
# [3] = test system: APP, BACE1, PSEN1, and PSEN2; experiment: qPCR expression of AD mediators (APP, BACE1, PSEN1, PSEN2) in HSV-1-infected hiNSCs; assay type: cell-based, human; details: HSV-1 MOI 0.0001
# Experimental: as §1, §2, §3
# [4] = test system: hiNSCs; experiment: Conditioned media (CM) experiment: reactive glia formation in new hiNSCs, TUJ1 and GFAP immunostaining; assay type: cell-based, human; details: VCV in virus CM with fresh HSV-1; new hiNSCs cultured for 4 days
# Experimental: Cells grown in tissue culture plates or in 3D scaffolds were fixed in 4% paraformaldehyde and washed with 1×phosphate-buffered saline (PBS). Samples were incubated with a blocking buffer consisting of PBS, 10% goat serum, and 0.1% Triton X-100. Primary antibodies were added to the blocking buffer and incubated with samples overnight at 4° C. The next day, samples were washed several times with PBS and incubated with a corresponding fluorescently conjugated secondary antibody in a blocking buffer for 1 hour at room temperature. Nuclei were counterstained with 4′,6-diamidino-2-phenylindole (Invitrogen).
# Moreover, we aimed to understand whether HSV-1-secreted factors could cause gliosis even in the absence of infection (FIG. 7). CM were harvested and filtered from mock- or HSV-1-infected hiNSCs that had been cultured for 2 days. Fresh HSV-1 virus was added to CM in the absence or presence of antiviral treatment VCV, and new hiNSCs were cultured for 4 days. β-III tubulin (TUJ1) and GFAP immunostaining was performed to visualize neurons and glia, respectively.
# [5] = test system: hiNSCs; experiment: VCV alone in the absence of virus on hiNSCs; assay type: cell-based, human; details: 200 μM VCV alone, no virus (data not shown)
# Experimental: (§4) Once added to media, inoculum was allowed to remain in cell cultures for the duration of the experiment to mimic low-level brain infection. For mock infections, an equal volume of control culture medium from uninfected Vero cells was used. All virus work was approved by the Tufts Institutional Biosafety Committee. Valacyclovir (VCV) HCl was reconstituted in dH2O and used at a concentration of 200 μM for all subsequent experiments. VCV was added at day 0 (D0; concurrently with HSV-1 infection) or day 1 (D1; 24 hours after infection).
# One of the most commonly used antiviral agents for treating HSV-1 infections is VCV, which specifically targets viral DNA replication in infected cells. We cultured hiNSCs for 4 days before subjecting to either mock or HSV-1 infection (MOI 0.0001). […] We first immunostained against HSV and Aβ (FIG. 4A) to determine any differences in the rate of HSV-1 infection and PLF generation in response to drug treatment.
# [6] = test system: HSV-1-infected hiNSCs; experiment: Aβ+ plaque-like formations (PLFs) in HSV-1-infected hiNSCs, immunostaining; assay type: cell-based, human; details: 200 μM VCV, MOI 0.0001, HCl
# Experimental: as §1, §4
# Cells grown in tissue culture plates or in 3D scaffolds were fixed in 4% paraformaldehyde and washed with 1×phosphate-buffered saline (PBS). Samples were incubated with a blocking buffer consisting of PBS, 10% goat serum, and 0.1% Triton X-100. […]
# [7] = test system: HSV-1; experiment: HSV-1 infection of hiNSCs with VCV treatment (HSV immunostaining, qPCR for HSV-UL29); assay type: cell-based, herpes simplex virus type 1
# Experimental: as §1, §2, §3
smiles,measurement,setting,value
"CC(C)[C@H](N)C(=O)OCCOCn1cnc2c(=O)[nH]c(N)nc21 [VCV, Valacyclovir HCl]",GFAP expression (immunostaining and qPCR),[1]; 200 μM VCV at D0,almost completely restored
same,pro-inflammatory mediator TNFα,"[1]; 200 μM VCV, both D0 and D1 dosing regimens",significantly reduced
same,HSV-1 latency associated transcript (LAT),[2],significant increase
same,PSEN2 expression,[2],significant increase
same,glial fibrillary acidic protein (GFAP) expression,[2],increase
same,"expression of AD mediators APP, BACE1, PSEN1 and PSEN2 (qPCR)",[3]; 200 μM VCV at D0,nearly rescued all markers back to control values
same,"expression of AD mediators APP, BACE1, PSEN1 and PSEN2 (qPCR)",[3]; 200 μM VCV at D1 (24 hours after infection),partial rescue
same,reactive glia formation,[4],increased reactive glia formation
same,effect on hiNSCs in the absence of virus,[5],no discernible effect
same,average number of PLFs,[6],significantly reduced; also recorded: decrease
same,average size (area) of PLFs,[6],significantly reduced; also recorded: decrease
same,HSV-1 infection,"[7]; 200 μM VCV at D0 (concurrently with HSV-1 infection), MOI 0.0001",almost completely abolished infection
same,HSV-1 infection (immunostaining and qPCR for HSV-UL29),"[7]; 200 μM VCV, both drug regimens (D0 or D1), HSV-1 MOI 0.0001, hiNSCs, HCl",significant decrease; also recorded: reduces HSV-1 infection
